Results from ChEMBL document CHEMBL5321259, “Synthesis and structure-activity relationship studies of naphthoquinones as STAT3 inhibitors” (Bioorg Med Chem, 2023).
Activity calls are given as the source filed them. The calls are words filed in the database; no cut-off is given here.

Legend:
A549 [1] = experiment: Antiproliferative activity against human A549 cells assessed as inhibition of cell growth measured after 72 hrs by WST-8 method; type: functional, cell-based; details: A549, 72 h
MDA-MB-231 = experiment: Antiproliferative activity against human MDA-MB-231 cells assessed as inhibition of cell growth measured after 72 hrs by WST-8 method; type: functional, cell-based; details: MDA-MB-231, 72 h
[2] = molecular target: Signal transducer and activator of transcription 3 (Homo sapiens) (UniProt P40763); experiment: Inhibition of STAT3 phosphorylation in human A549 cells assessed as decrease in IL-6 stimulated STAT3 phosphorylation at 0.5 to 3 uM preincubated for 1 hr followed by IL-6 stimulation and measured after 1 hrs by Western blot analysis; type: cell-based; details: dose 0.5-3 µM, time 2.0 hrs
[3] = molecular target: Signal transducer and activator of transcription 3 (Homo sapiens) (UniProt P40763); experiment: Inhibition of IL-6 stimulated STAT3 phosphorylation in human A549 cells at <0.1 uM preincubated for 1 hr followed by IL-6 stimulation and measured after 1 hrs by Western blot analysis relative to control; type: cell-based; details: time 2.0 hrs
[4] = molecular target: Signal transducer and activator of transcription 3 (Homo sapiens) (UniProt P40763); experiment: Inhibition of IL-6 stimulated STAT3 phosphorylation in human A549 cells at 10 uM preincubated for 1 hr followed by IL-6 stimulation and measured after 1 hrs by Western blot analysis; type: cell-based; details: time 2.0 hrs
A549 [5] = experiment: Antiproliferative activity against human A549 cells measured after 24 hrs by MTT assay; type: functional, cell-based; details: A549, 24 h

Signal transducer and activator of transcription 3 (Homo sapiens), sequence (P40763 whole entry): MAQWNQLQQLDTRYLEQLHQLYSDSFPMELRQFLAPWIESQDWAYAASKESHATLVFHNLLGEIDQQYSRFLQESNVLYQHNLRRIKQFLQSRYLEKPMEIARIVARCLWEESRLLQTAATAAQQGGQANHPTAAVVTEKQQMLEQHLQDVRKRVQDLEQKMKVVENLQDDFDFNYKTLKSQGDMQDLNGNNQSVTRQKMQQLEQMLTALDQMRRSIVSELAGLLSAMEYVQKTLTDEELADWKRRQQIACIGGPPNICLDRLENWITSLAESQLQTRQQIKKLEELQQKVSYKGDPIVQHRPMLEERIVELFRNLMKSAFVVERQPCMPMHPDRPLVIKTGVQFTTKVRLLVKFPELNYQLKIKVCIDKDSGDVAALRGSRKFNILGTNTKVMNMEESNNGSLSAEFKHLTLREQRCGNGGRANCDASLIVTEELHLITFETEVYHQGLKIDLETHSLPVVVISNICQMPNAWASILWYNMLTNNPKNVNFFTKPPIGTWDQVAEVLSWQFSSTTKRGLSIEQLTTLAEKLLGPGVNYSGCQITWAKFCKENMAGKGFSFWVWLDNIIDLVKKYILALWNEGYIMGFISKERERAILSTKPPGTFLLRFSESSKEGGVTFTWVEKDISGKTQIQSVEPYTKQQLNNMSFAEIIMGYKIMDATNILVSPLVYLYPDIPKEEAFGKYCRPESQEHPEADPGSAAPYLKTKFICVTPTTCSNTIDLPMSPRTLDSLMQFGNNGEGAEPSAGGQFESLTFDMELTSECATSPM

| Structure (SMILES) | IC50 (A549 [1]) [µM] | IC50 (MDA-MB-231) [µM] | inhibition [2] | inhibition [3] [%] | inhibition [4] | IC50 (A549 [5]) [µM] |
| --- | --- | --- | --- | --- | --- | --- |
| CC(=O)c1cc2c(o1)C(=O)c1ccc(S(N)(=O)=O)cc1C2=O | 0.14 | 0.11 |  |  |  |  |
| CC(O)c1cc2c(o1)C(=O)c1cccc(S(=O)(=O)N(C)C)c1C2=O (configuration not stated) | 1.2 | 0.77 | Active |  |  |  |
| CC(=O)c1cc2c(o1)-c1cccc(O)c1C(=O)C2=O | 0.62 | 1.4 | Active | 100 |  |  |
| CC(O)c1cc2c(o1)C(=O)c1ccc(S(N)(=O)=O)cc1C2=O (configuration not stated) | 0.49 | 0.31 |  |  |  |  |
| CC1(C)CCC2=C(O1)c1cccc(O)c1C(=O)C2=O | 0.63 | 1.4 |  |  | inactive |  |
| O=C1C(Nc2ccccc2N2CCNCC2)=CC2=NS(=O)(=O)c3cccc1c32 |  |  |  |  |  | ≤ 4.66 |
| C[C@H](O)c1cc2c(o1)-c1cccc(O)c1C(=O)C2=O | 0.39 | 2.4 | Active | 100 |  |  |
| C[C@H](O)c1cc2c(o1)C(=O)c1cccc(O)c1C2=O | 0.16 | 0.35 |  |  |  |  |
| CC(=O)c1cc2c(o1)-c1ccccc1C(=O)C2=O | 1.7 | 1.5 | Active |  |  |  |
| CC(=O)c1cc2c(o1)C(=O)c1cccc3c1C2=NS3(=O)=O | 0.054 | 0.089 | Active | 100 |  |  |
| CC(O)c1cc2c(o1)C(=O)c1cccc3c1C2=NS3(=O)=O (configuration not stated) | 0.034 | 0.049 | Active | 100 |  |  |
